The values below come from patent publication US6967196B1, “Sulfonamide compounds and uses thereof” (Bristol-Myers Squibb Company, priority 1999, dated 2005).

Counter-ions that a name gives are not always drawn. Like-named read-outs stand apart in the source and are kept apart here.

The assay concerns amyloid β production in transfected H4 (human neuroglioma) cells stably expressing APP constructs. Description: In vitro cell-based assay of inhibitors of amyloid β production (ELISA). Conditions: amyloid β in medium by ELISA. The procedure:
In Vitro Cell-Based Assay of Inhibitors of Amyloid β Production
Transfected H4 (human neuroglioma) cells stably expressing APP constructs are used to identify and assess inhibitors of Aβ production. In brief, cells lines are exposed to compounds, and the effect of each compound on amyloid β production is determined by measuring the amount of amyloid β produced using an enzyme linked immunosorbent assay (ELISA) that detects amyloid β (see, for example, Seubert et al., (1992) Nature, 359:325-327).
Transfected cells that stably express wild-type and variant forms of APP are plated in 96-well format plates at a density sufficient for the rapid detection of the secreted amyloid β (experimentally predetermined for a particular stable cell population). Cells are plated at least six hours prior to the introduction of the test compound at which time the growth medium is replaced by fresh medium containing the compound to be tested. All synthetic agents are initially screened at doses ranging from 10-100 μM. Higher dilutions of agents can be used to minimize cytotoxicity. Incubation of cells with a test compound continues for approximately 16 hours at which time aliquots of medium from each well are removed and assayed for amyloid β.
ELISA is carried out by methods known in the art (see, e.g., Haass et al., Antibodies: A Laboratory Manual, Harlow and lane, Editors, Cold Spring Harbor Press, 1988) The capture antibody is typically a mouse monoclonal (IgG1/kβ-APPa) which recognizes the carboxyl terminal epitope of amyloid β. The specificity of the capture antibody insures measurement of amyloid β without interference from other secreted APP fragments that share amino acid sequence (amyloid β 1-16) homology with amyloid β but lack the carboxy-terminal region. The detecting antibody is typically an affinity-purified rabbit polyclonal antibody that is specific for the amino terminus of amyloid β.
Results from test compounds are compared to results obtained when cells are treated with control agents. Amyloid β levels are determined by comparison to a standard curve obtained by subjecting a range of known amounts of amyloid β to the ELISA.
A compound is identified as “active” when it inhibits cellular production of amyloid β relative to levels in control samples by at least 50% at the initial tested concentration without significant cytotoxicity. Active compounds are then assayed in dose-response experiments to determine the lowest dose of compound necessary for inhibition of amyloid β production.
For orientation: An ELISA detects its analyte on a solid surface through an enzyme-linked reagent.

[1] abbreviates: transfected H4 cells stably expressing APP, approximately 16 hours incubation, read-out: ACTIVITY (IC50, inhibition of amyloid β production).
The mark [2] stands for this setting: transfected H4 cells stably expressing APP constructs, approximately 16 hours incubation, read-out: ACTIVITY (IC50, inhibition of amyloid β production).
[3] abbreviates: Homo sapiens, 16 h, transfected H4 cells stably expressing APP, approximately 16 hours incubation, Table B, read-out: ACTIVITY (IC50, inhibition of amyloid β production).
The mark [4] stands for this setting: transfected H4 cells stably expressing APP, approx. 16 h incubation, read-out: ACTIVITY (IC50, inhibition of amyloid β production).
Setting [5] is: Homo sapiens, 16 h, transfected H4 cells stably expressing APP, approx. 16 h incubation, read-out: ACTIVITY (IC50, inhibition of amyloid β production).
[6] abbreviates: Homo sapiens, 16 h, transfected H4 cells stably expressing APP, approximately 16 hours incubation, read-out: ACTIVITY (IC50, inhibition of amyloid β production).
The mark [7] stands for this setting: Homo sapiens, 16 h, transfected H4 cells stably expressing APP constructs, approximately 16 hours incubation, read-out: ACTIVITY (IC50, inhibition of amyloid β production).
[8] abbreviates: Table B, transfected H4 cells stably expressing APP, approximately 16 hours incubation, read-out: ACTIVITY (inhibitory concentration IC50, inhibition of amyloid β production).

As to `CCCCC(CC)C(=O)N(C)CCCOc1ccccc1CN(c1cc(F)ccc1F)S(=O)(=O)c1ccc(Cl)cc1` (stereo not drawn) [Example 837, N-{3-[2-({[(4-chlorophenyl)sulfonyl]-2,5-difluoroanilino}methyl)phenoxy]propyl}-2-ethyl N-methylhexanamide], the IC50 under setting [1] fell in the range of 100 to 500 nM. For `C[C@H](CCCCN1CCC(S(C)(=O)=O)CC1)N(c1cc(Cl)ccc1Cl)S(=O)(=O)c1ccc(Cl)cc1` [Example 1123, 4-chloro-N-(2,5-dichlorophenyl)-N-[5-[(4-methylsulfonyl)-1-piperidinyl]-1(R)-methylpentyl]benzenesulfonamide], under setting [2], the IC50 lay in the range of 50 to 100 nM. As for `C[C@H](c1ccccc1Cn1ncnn1)N(c1cc(F)ccc1F)S(=O)(=O)c1ccc(Cl)cc1` [Example 396], under setting [3], the IC50 lay in the range of 50 to 100 nM. For `C[C@H](c1ccccc1COC(=O)NCc1ccco1)N(c1cc(F)ccc1F)S(=O)(=O)c1ccc(Cl)cc1` [Example 667, 2-((1R)-1-{[(4-chlorophenyl)sulfonyl]-2,5-difluoroanilino}ethyl)benzyl 2-furylmethylcarbamate], under setting [4], the IC50 was in the range of 100 to 500 nM.

Regarding `C[C@H](C(=O)NCc1c(F)cccc1F)N(c1cc(Cl)ccc1F)S(=O)(=O)c1ccc(Cl)cc1` [Example 1327], the IC50 (Homo sapiens, 16 h, transfected H4 cells expressing APP, approximately 16 hours incubation, read-out: ACTIVITY (IC50, inhibition of amyloid β production)) is more than 500 nM. As to `O=S(=O)(c1ccc(Cl)cc1)N(Cc1ccccc1OCCCN1CCCCC1)c1cccc(Br)c1` [Example 804, N-(3-bromophenyl)-4-chloro-N-{2-[3-(1-piperidinyl)propoxy]benzyl}benzenesulfonamide hydrochloride], under setting [5], the IC50 was 100 to 500 nM.

Consider `CC(C)N(C(=O)N(C)CCOc1ccccc1C(C)N(c1cc(F)ccc1F)S(=O)(=O)c1ccc(Cl)cc1)C(C)C` (stereo not drawn) [Example 888, 4-chloro-N-(2,5-difluorophenyl)-N-[1-(2-{2-[[(diisopropylamino)carbonyl](methyl)amino]ethoxy}phenyl)ethyl]benzenesulfonamide], for which the IC50 under setting [6] is more than 500 nM.

For the compound `COS(=O)(=O)CCC[C@@H](C)N(c1cc(Cl)ccc1Cl)S(=O)(=O)c1ccc(Cl)cc1` [Example 1195, methyl(4R)-4-[N-[2,5-dichlorophenyl][(4-chlorophenyl)sulfonyl]amino]pentylsulfonate], the IC50 under setting [7] is more than 500 nM.

Regarding `O=S(=O)(/C=C/c1ccccc1)N(Cc1ccccc1OCCCN1CCCCC1)c1cc(Cl)ccc1Cl` [Example 260, (E)-N-(2,5-dichlorophenyl)-2-phenyl-N-{2-[3-(1-piperidinyl)propoxy]benzyl}ethenesulfonamide hydrochloride], the IC50 under setting [8] is 25 to 50 nM. Turning to `CCS(=O)(=O)CC[C@@H](C)N(c1cc(Cl)ccc1Cl)S(=O)(=O)c1ccc(Cl)cc1` [Example 1180, 4-chloro-N-[2,5-dichlorophenyl]-N-[1(R)-methyl-(3-ethylsulfonyl)propyl]benzenesulfonamide], the IC50 under setting [2] is not above 25 nM. For the compound `COC(=O)C1SCCN1CCCC[C@@H](C)N(c1cc(Cl)ccc1Cl)S(=O)(=O)c1ccc(Cl)cc1` (stereo partly drawn) [Example 1117, 4-chloro-N-(2,5-dichlorophenyl)-N-[5-(2-methoxycarbonyl-3-thiazolidinyl)-1(R)-methylpentyl]benzenesulfonamide], the IC50 under setting [7] lay within 25 to 50 nM. Take “ethyl (2E)-3-[2-({[(4-chlorophenyl)sulfonyl]anilino}methyl)phenyl]-2-propenoate [Example 971]”: the IC50 under setting [1] is more than 500 nM. Regarding “N-{3-[2-({[(4-chlorophenyl)sulfonyl]-2,5-difluoroanilino}methyl)phenoxy]propyl}-2-methoxy-N-methylbenzamide [Example 775]”, the IC50 under setting [4] lay within 100 to 500 nM. The same measure, in the same setting: for “S-ethyl-3-[2-({[(4-chlorophenyl)sulfonyl]-2,5-difluoroanilino}methyl)phenoxy]propyl(methyl)thiocarbamate [Example 757]” the value was 100 to 500 nM.

For the compound `O=S(=O)(c1ccc(Cl)cc1)N(Cc1ccccc1OCCCN1CCCCC1)[C@H]1CC2CCC1C2` (stereo partly drawn) [Example 954, N-[(2S)-bicyclo[2.2.1]hept-2-yl]-4-chloro-N-{2-[3-(1-piperidinyl)propoxy]benzyl}benzenesulfonamide hydrochloride], under setting [6], the IC50 is more than 500 nM. Regarding “N-{3-[2-({[(4-chlorophenyl)sulfonyl]-2,5-difluoroanilino}methyl)phenoxy]propyl}-N,2-dimethylbenzamide [Example 680]”, the IC50 under setting [4] was in the range of 100 to 500 nM.

Turning to “N-{2-[2-(1-{[(4-chlorophenyl)sulfonyl]-2,5-difluoroanilino}ethyl)phenoxy]ethyl}-3-cyclopentyl-N-methylpropanamide [Example 653]”, under setting [4], the IC50 is 100 to 500 nM. With `C[C@H](c1ccccc1OCCCBr)N(c1cc(F)ccc1F)S(=O)(=O)c1ccc(Cl)cc1` [Example 1045, N-{(1R)-1-[2-(3-bromopropoxy)phenyl]ethyl}-4-chloro-N-(2,5-difluorophenyl)benzenesulfonamide], the IC50 under setting [6] was more than 500 nM. Turning to `C[C@H](c1ccc(F)cc1CCOC(=O)NCc1ccc(F)cc1)N(c1cc(F)ccc1F)S(=O)(=O)c1ccc(Cl)cc1` [Example 419, 2-[2-((1R)-1-{[(4-chlorophenyl)sulfonyl]-2,5-difluoroanilino}ethyl)-5-fluorophenyl]ethyl 4-fluorobenzylcarbamate], the IC50 under setting [3] is 50 to 100 nM. On to `CCC(c1ccccc1OCCCN1CCCCC1)N(c1cc(F)ccc1F)S(=O)(=O)c1ccc(Cl)cc1` (stereo not drawn) [Example 878, 4-chloro-N-(2,5-difluorophenyl)-N-(1-{2-[3-(1-piperidinyl)propoxy]phenyl}propyl)benzenesulfonamide hydrochloride], for which, under setting [6], the IC50 was more than 500 nM. As to “N-{3-[2-(1-{[(4-chlorophenyl)sulfonyl]-2,5-difluoroanilino}ethyl)phenoxy]propyl}-2-naphthamide [Example 808]”, the IC50 under setting [1] lay within 100 to 500 nM.

`O=[N+]([O-])c1ccc(S(=O)(=O)CCCOc2ccccc2CN(c2cc(F)ccc2F)S(=O)(=O)c2ccc(Cl)cc2)cc1` [Example 905, 4-chloro-N-(2,5-difluorophenyl)-N-(2-{3-[(4-nitrophenyl)sulfonyl]propoxy}benzyl)benzenesulfonamide]: the IC50 under setting [6] was more than 500 nM. With `C[C@H](CCCS(=O)(=O)Cl)N(c1cc(Cl)ccc1F)S(=O)(=O)c1ccc(Cl)cc1` [Example 43, (4R)-4-[N-[5-chloro-2-fluorophenyl][(4-chlorophenyl)sulfonyl]amino]pentylsulfonyl Chloride], the IC50 under setting [8] was not above 25 nM. `CC(=O)SCCCOc1ccccc1CN(c1ccccc1)S(=O)(=O)c1ccc(Cl)cc1` [Example 341, S{3-[2-({[(4-chlorophenyl)sulfonyl]anilino}methyl)phenoxy]propyl}ethanethioate]: the IC50 (transfected H4 cells stably expressing APP, approximately 16 hours incubation, Table B, read-out: ACTIVITY (IC50, inhibition of amyloid β production)) is 50 to 100 nM. Turning to `O=S(=O)(c1ccc(Cl)cc1)N(Cc1ccccc1OCCC1CCCCN1Cc1cc(F)cc(F)c1)c1cc(F)ccc1F` (stereo not drawn) [Example 746, 4-chloro-N-(2-{2-[1-(3,5-difluorobenzyl)-2-piperidinyl]ethoxy}benzyl)-N-(2,5-difluorophenyl)benzenesulfonamide], the IC50 under setting [5] fell in the range of 100 to 500 nM. As to `CCN(CC)C(=O)N(C)CCCOc1ccccc1CN(c1cc(F)ccc1F)S(=O)(=O)c1ccc(Cl)cc1` [Example 849, 4-chloro-N-(2-{3-[[(diethylamino)carbonyl](methyl)amino]propoxy}benzyl)-N-(2,5-difluorophenyl)benzenesulfonamide], the IC50 under setting [6] fell in the range of 100 to 500 nM. As for “N-{3-[2-(1-{[(4-chlorophenyl)sulfonyl]-2,5-difluoroanilino}ethyl)phenoxy]propyl}-N-methyl-2,5-bis(trifluoromethyl)benzamide [Example 892]”, the IC50 under setting [1] is more than 500 nM.
